Reference: ChEMBL document CHEMBL1128643, “Impact of polyamine analogues on the NMDA receptor” (1995)

Tests used:
Rattus norvegicus [1] = organism: Rattus norvegicus; test: Compound was evaluated for agonist activity at 10 uM exhibiting moderate antagonism of [3H]MK-801 binding relative to 100% control; assay type: functional; design: unit: % of control
Rattus norvegicus [2] = organism: Rattus norvegicus; test: Compound was evaluated for agonist activity at 1 uM exhibiting moderate antagonism of [3H]MK-801 binding relative to 100% control; assay type: functional; design: unit: % of control

| SMILES | Activity (Rattus norvegicus [1]) | Activity (Rattus norvegicus [2]) |
| --- | --- | --- |
| CCNCCCNCCCCNCCCNCC [BIS(ETHYL)SPERMINE] | 63.7 | 113.7 |
| CC(C)(C)NCCCCNCCCCNCCCCNC(C)(C)C | 33 | 106.5 |
| NCCCNCCCCNCCCN [SPERMINE] | – | 123.2 |
| CNCCCNCCCNCCCNC | 87.9 | 120.6 |
| CNCCCCNCCCCNCCCCNC | 76.3 | 117.8 |
| C(CCNCCCCN[C@]12C[C@H]3C[C@H](C[C@H](C3)C1)C2)CNCCCCNC12C[C@H]3C[C@@H](C1)C[C@@H](C2)C3.Cl | 15 | 101.9 |
| CCNCCCCNCCCCNCCCCNCC [DIETHYLHOMOSPERMINE] | 53.9 | 114.3 |
